# According to patent publication US20140256945A1, “PHOSPHONIC ACID COMPOUNDS AS SPHINGOSINE-1-PHOSPHATE RECEPTOR MODULATORS” (Allergan, Inc., priority 2013, published 2014):
# Tests used:
# human S1P1 receptor = target: T1, human S1P1 receptor (Homo sapiens, UniProt P21453); test: GTP γ35S binding assay for S1P1 activity; type: biochemical; conditions: membranes of cells stably expressing S1P1 receptor, agonist potency
# T1 construct: expressed in transfected cells; membranes used
# Procedure: Compounds were tested for S1P1 activity using the GTP γ^35S binding assay. These compounds may be assessed for their ability to activate or block activation of the human S1P1 receptor in cells stably expressing the S1P1 receptor.
# GTP γ^35S binding was measured in the medium containing (mM) HEPES 25, pH 7.4, MgCl2 10, NaCl 100, dithitothreitol 0.5, digitonin 0.003%, 0.2 nM GTP γ^35S, and 5 μg membrane protein in a volume of 150 μl. Test compounds were included in the concentration range from 0.08 to 5,000 nM unless indicated otherwise. Membranes were incubated with 100 μM 5′-adenylylimmidodiphosphate for 30 min, and subsequently with 10 μM GDP for 10 min on ice. Drug solutions and membrane were mixed, and then reactions were initiated by adding GTP γ^35S and continued for 30 min at 25° C. Reaction mixtures were filtered over Whatman GF/B filters under vacuum, and washed three times with 3 mL of ice-cold buffer (HEPES 25, pH7.4, MgCl2 10 and NaCl 100). Filters were dried and mixed with scintillant, and counted for ^35S activity using a β-counter. Agonist-induced GTP γ^35S binding was obtained by subtracting that in the absence of agonist. Binding data were analyzed using a non-linear regression method. In case of antagonist assay, the reaction mixture contained 10 nM S1P in the presence of test antagonist at concentrations ranging from 0.08 to 5000 nM.
# blood lymphocytes = test: Lymphopenia Assay in Mice; type: in vivo
# Procedure: Test drugs are prepared in a solution containing 3% (w/v) 2-hydroxy propyl β-cyclodextrin (HPBCD) and 1% DMSO to a final concentration of 1 mg/ml, and subcutaneously injected to female C57BL6 mice (CHARLES RIVERS) weighing 20-25 g at the dose of 0.5 to 10 mg/Kg. Blood samples are obtained by puncturing the submandibular skin with a Goldenrod animal lancet at 5, 24, 48, and 72 hrs post drug application. Blood is collected into microvettes (SARSTEDT) containing EDTA tripotassium salt. Lymphocytes in blood samples are counted using a HEMAVET Multispecies Hematology System, HEMAVET HV950FS (Drew Scientific Inc.). • (Hale, J. et al Bioorg.& Med. Chem. Lett. 14 (2004) 3351).
# A lymphopenia assay in mice; as previously described, was employed to measure the in vivo blood lymphocyte depletion after dosing with the test compound (3-{[2,5-difluoro-4-(6-phenylhexyl)benzyl]amino}propyl)phosphonic acid Compound-10. This S1P1 modulator, (3-{[2,5-difluoro-4-(6-phenylhexyl)benzyl]amino}propyl)phosphonic acid Compound-10 is useful for S1P-related diseases and exemplified by the lymphopenia in vivo response. […] Lymphocytes in blood samples were counted using a HEMAVET Multispecies Hematology System, HEMAVET HV950FS (Drew Scientific Inc.). […]
# T1 sequence (P21453 whole entry): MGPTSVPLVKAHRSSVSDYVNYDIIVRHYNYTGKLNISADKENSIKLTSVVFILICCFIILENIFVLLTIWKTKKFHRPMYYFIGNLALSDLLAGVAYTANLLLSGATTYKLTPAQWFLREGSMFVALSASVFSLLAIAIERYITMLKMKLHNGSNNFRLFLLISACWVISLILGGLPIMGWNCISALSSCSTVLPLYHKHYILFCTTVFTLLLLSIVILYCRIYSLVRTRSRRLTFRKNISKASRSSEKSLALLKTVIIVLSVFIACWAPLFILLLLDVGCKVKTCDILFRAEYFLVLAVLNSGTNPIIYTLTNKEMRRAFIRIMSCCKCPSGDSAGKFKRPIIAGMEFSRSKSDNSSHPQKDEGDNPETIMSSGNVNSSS
SMILES,EC50 (human S1P1 receptor),"lymphocyte count (number of lymphocytes) (blood lymphocytes; female C57BL6 mice, 0.5 mg/Kg subcutaneous, after 5 hours)","Lymphopenia (blood lymphocytes; mice, 0.5 mg/kg, 5, 24, 48, 72 hours (FIG. 1))"
"Cc1cc(CNCCCP(=O)(O)O)ccc1CCCCCCc1ccccc1 [Compound 6, (3-{[3-methyl-4-(6-phenylhexyl)benzyl]amino}propyl)phosphonic acid]",0.7 nM,–,–
"Cc1cc(CNCCCP(=O)(O)O)ccc1C#CCCCCc1ccccc1 [Compound 2, (3-{[3-methyl-4-(6-phenylhex-1-yn-1-yl)benzyl]amino}propyl)phosphonic acid]",3.4 nM,–,–
"O=C(CCCCc1ccccc1)Nc1ccc(CNCCCP(=O)(O)O)cc1Br [Compound 11, [3-({3-bromo-4-[(5-phenylpentanoyl)amino]benzyl}amino)propyl]phosphonic acid]",105 nM,–,–
"O=P(O)(O)CCCNCc1ccc(C#CCCCCc2ccccc2)c(Br)c1 [Compound 4, (3-{[3-bromo-4-(6-phenylhex-1-yn-1-yl)benzyl]amino}propyl)phosphonic acid]",22.1 nM,–,–
"O=P(O)(O)CCCNCc1ccc(C#CCCCCc2ccccc2)cc1 [Compound 3, (3-{[4-(6-phenylhex-1-yn-1-yl)benzyl]amino}propyl)phosphonic acid]",26.7 nM,–,–
"O=P(O)(O)CCCNCc1ccc(CCCCCCc2ccccc2)c(F)c1 [Compound 5, (3-{[3-fluoro-4-(6-phenylhexyl)benzyl]amino}propyl)phosphonic acid]",4.2 nM,–,–
"O=P(O)(O)CCCNCc1ccc(CCCCCCc2ccccc2)cc1 [Compound 9, (3-{[4-(6-phenylhexyl)benzyl]amino}propyl)phosphonic acid]",6.8 nM,–,–
"O=P(O)(O)CCCNCc1ccc(NCCCCCc2ccccc2)c(Br)c1 [Compound 12, [3-({3-bromo-4-[(5-phenylpentyl)amino]benzyl}amino)propyl]phosphonic acid]",4.1 nM,–,–
"O=P(O)(O)CCCNCc1ccc(CCCCCCc2ccccc2)c(Cl)c1 [Compound 8, (3-{[3-chloro-4-(6-phenylhexyl)benzyl]amino}propyl)phosphonic acid]",0.5 nM,–,–
"O=P(O)(O)CCCNCc1ccc(CCCCCCc2ccccc2)c(C(F)(F)F)c1 [Compound 7, (3-{[4-(6-phenylhexyl)-3-(trifluoromethyl)benzyl]amino}propyl)phosphonic acid]",11.2 nM,–,–
"O=P(O)(O)CCCNCc1cc(F)c(CCCCCCc2ccccc2)cc1F [Compound 10, (3-{[2,5-difluoro-4-(6-phenylhexyl)benzyl]amino}propyl)phosphonic acid]",1.9 nM,< 1 10^3/μL blood,Lymphopenia was induced
"O=P(O)(O)CCCNCc1ccc(C#CCCCCc2ccccc2)c(F)c1 [Compound 1, (3-{[3-fluoro-4-(6-phenylhex-1-yn-1-yl)benzyl]amino}propyl)phosphonic acid]",4.3 nM,–,–
